Assay results reported in patent publication US20070213339A1 (Bayer Pharmaceuticals Corporation, priority 2004, published 2007).

Each compound was assayed on Colo205 human colon carcinoma cell line (assay: In vitro tumor cell proliferation assay (MTS, CellTiter 96 Aqueous One Solution)). Details: COLO 205, Colo205 cells, 72 hours compound exposure, MTS absorbance at 490 nm, read-out: IC50 (concentration of test compound required to inhibit proliferation of 50% of the cells).
Type: cell-based
Method: In Vitro Tumor Cell Proliferation Assay
The adherent H460 human non-small cell lung carcinoma and Colo205 human colon carcinoma cell lines were purchased from the American Type and Culture Collection (ATCC, Manassas, Va.) and maintained in RPMI-1640 growth media supplemented with 10% heat inactivated fetal bovine serum (Gibco, Invitrogen Corp. Grand Island, N.Y.). At 37° C. in a humidified atmosphere of 5% CO2.
The CellTiter 960 Aqueous One Solution kit, MTS, (Promega, Madison, Wis.) was used to measure proliferation of tumor cell lines in vitro. This method monitors the bioreduction of a tetrazolium dye as a measure of cell viability. On Day 0, exponentially growing cells were trypsinized, resuspended in RPMI-1640 growth media supplemented with 10% FCS, 100 u/ml of penicillin G and 100 ug/ml of streptomycin sulfate, and seeded at 2000 cells per well into 96 well microtiter plates. Cells were incubated overnight in a humidified atmosphere of 5% CO2 at 37° C. On Day 1, serial dilutions of compounds were prepared at 2× the finial assay concentration. One hundred microliters of 2× solution was added to test wells in duplicate and control wells received no test compound. The final drug concentration ranged from 0 to 10-20 um in a 5 point dose-response curve. Cells were incubated in the presence of test compounds in a humidified atmosphere of 5% CO2 at 37° C. for 72 hours. After 72 hours of compound exposure, 40 ul of Promega CellTiter 960 Aqueous One Solution was added to each well and absorbance at 490 n-M was measured using a multi-well plate reader. Percent inhibition of proliferation was calculated using the following formula: 100×(1−Absorbancetreated−Background/(Absorbancecontrol−Background)
Absorbancetreated=absorbance at 490 nm in test wells, cells with test compound
Absorbancecontrol=absorbance at 490 nm in control wells, cells with no test compound
Background=absorbance 490 nm in wells containing media and no cells
The concentration of test compound required to inhibit proliferation of 50% of the cells (IC50) was determined by linear regression analysis.
Representative compounds of the invention were tested in the above-described Colo205 human colon carcinoma cell line in vitro assay and found to inhibit human colon carcinoma cell proliferation, and are summarized as follows: […]
`CC1C=CC(C)N1Cc1ccc(-n2cc(C(=O)O)c(=O)c3cc(F)c(N4CCN(c5ncccn5)CC4)c(Cl)c32)cc1` (stereo not shown) [Example 20, 8-chloro-1-{4-[(2,5-dimethyl-2,5-dihydro-1H-pyrrol-1-yl)methyl]phenyl}-6-fluoro-4-oxo-7-(4-pyrimidin-2-ylpiperazin-1-yl)-1,4-dihydroquinoline-3-carboxylic acid] showed an IC50 of 2000 to 20000 nM. `COC[C@H]1CCCN1Cc1ccc(-n2cc(C(=O)O)c(=O)c3cc(F)c(N4CCN(c5ccccn5)CC4)c(Cl)c32)cc1` [Example 21, 8-chloro-6-fluoro-1-(4-{[(2R)-2-(methoxy-methyl)pyrrolidin-1-yl]methyl}phenyl)-4-oxo-7-(4-pyridin-2-ylpiperazin-1-yl)-1,4-dihydroquinoline-3-carboxylic acid] showed an IC50 of less than 500 nM. `COC[C@H]1CCCN1Cc1ccc(-n2cc(C(=O)O)c(=O)c3cc(F)c(N4CCN(c5ncccn5)CC4)c(Cl)c32)cc1` [Example 22, 8-chloro-6-fluoro-1-(4-{[(2R)-2-(methoxy-methyl)pyrrolidin-1-yl]methyl}phenyl)-4-oxo-7-(4-pyrimidin-2-ylpiperazin-1-yl)-1,4-dihydroquinoline-3-carboxylic acid] was tested, and the IC50 was 500 to 2000 nM. In the case of `COC[C@H]1CCCN1Cc1ccc(-n2cc(C(=O)O)c(=O)c3cc(F)c(N4CCN(c5ccc(F)cc5)CC4)c(Cl)c32)cc1` [Example 23, 8-chloro-6-fluoro-7-[4-(4-fluorophenyl)-piperazin-1-yl]-1-(4-{[(2R)-2-(methoxymethyl)pyrrolidin-1-yl]methyl}phenyl)-4-oxo-1,4-dihydroquinoline-3-carboxylic acid], the IC50 is reported as less than 500 nM. `COC[C@@H]1CCCN1Cc1ccc(-n2cc(C(=O)O)c(=O)c3cc(F)c(N4CCN(c5ccccn5)CC4)c(Cl)c32)cc1` [Example 24, 8-chloro-6-fluoro-1-(4-{[(2S)-2-(methoxy-methyl)pyrrolidin-1-yl]methyl}phenyl)-4-oxo-7-(4-pyridin-2-ylpiperazin-1-yl)-1,4-dihydroquinoline-3-carboxylic acid] gave an IC50 of less than 500 nM. Work on `COC[C@@H]1CCCN1Cc1ccc(-n2cc(C(=O)O)c(=O)c3cc(F)c(N4CCN(c5ccc(F)cc5)CC4)c(Cl)c32)cc1` [Example 25, 8-chloro-6-fluoro-7-[4-(4-fluorophenyl)-piperazin-1-yl]-1-(4-{[(2S)-2-(methoxymethyl)pyrrolidin-1-yl]methyl}phenyl)-4-oxo-1,4-dihydroquinoline-3-carboxylic acid] yielded an IC50 of less than 500 nM. `COC[C@@H]1CCCN1Cc1ccc(-n2cc(C(=O)O)c(=O)c3cc(F)c(N4CCN(c5ncccn5)CC4)c(Cl)c32)cc1` [Example 26, 8-chloro-6-fluoro-1-(4-{[(2S)-2-(methoxy-methyl)pyrrolidin-1-yl]methyl}phenyl)-4-oxo-7-(4-pyrimidin-2-ylpiperazin-1-yl)-1,4-dihydroquinoline-3-carboxylic acid] gave an IC50 of less than 500 nM. Work on `O=C(O)c1cn(-c2ccc(CN3CC[C@H](O)C3)cc2)c2c(Cl)c(N3CCN(c4ncccn4)CC3)c(F)cc2c1=O` [Example 27, 8-chloro-6-fluoro-1-(4-{[(3S)-3-hydroxy-pyrrolidin-1-yl]methyl}phenyl)-4-oxo-7-(4-pyrimidin-2-ylpiperazin-1-yl)-1,4-dihydroquinoline-3-carboxylic acid] yielded an IC50 of less than 500 nM. With `O=C(O)c1cn(-c2ccc(CN3CC[C@H](O)C3)cc2)c2c(Cl)c(N3CCN(c4ccccn4)CC3)c(F)cc2c1=O` [Example 28, 8-chloro-6-fluoro-1-(4-{[(3S)-3-hydroxypyrrolidin-1-yl]methyl}phenyl)-4-oxo-7-(4-pyridin-2-ylpiperazin-1-yl)-1,4-dihydroquinoline-3-carboxylic acid] the IC50 was less than 500 nM. With `O=C(O)c1cn(-c2ccc(CN3CC[C@H](O)C3)cc2)c2c(Cl)c(N3CCN(c4ccc(F)cc4)CC3)c(F)cc2c1=O` [Example 29, 8-chloro-6-fluoro-7-[4-(4-fluorophenyl)-piperazin-1-yl]-1-(4-{[(3S)-3-hydroxypyrrolidin-1-yl]methyl}phenyl)-4-oxo-1,4-dihydroquinoline-3-carboxylic acid] the IC50 was less than 500 nM. In the case of `N#Cc1ccccc1N1CCN(c2c(F)cc3c(=O)c(C(=O)O)cn(-c4ccc(CN5CC[C@H](O)C5)cc4)c3c2Cl)CC1` [Example 30, 8-chloro-7-[4-(2-cyanophenyl)piperazin-1-yl]-6-fluoro-1-(4-{[(3S)-3-hydroxypyrrolidin-1-yl]methyl}phenyl)-4-oxo-1,4-dihydroquinoline-3-carboxylic acid], the IC50 is reported as less than 500 nM. Compound `O=C(O)c1cn(-c2ccc(CN3CC[C@@H](O)C3)cc2)c2c(Cl)c(N3CCN(c4ccc(F)cc4)CC3)c(F)cc2c1=O` [Example 31, 8-chloro-6-fluoro-7-[4-(4-fluorophenyl)-piperazin-1-yl]-1-(4-{[(3R)-3-hydroxypyrrolidin-1-yl]methyl}phenyl)-4-oxo-1,4-dihydroquinoline-3-carboxylic acid] has an IC50 of less than 500 nM. `N#Cc1ccccc1N1CCN(c2c(F)cc3c(=O)c(C(=O)O)cn(-c4ccc(CN5CC[C@@H](O)C5)cc4)c3c2Cl)CC1` [Example 32, 8-chloro-7-[4-(2-cyanophenyl)piperazin-1-yl]-6-fluoro-1-(4-{[(3R)-3-hydroxypyrrolidin-1-yl]methyl}phenyl)-4-oxo-1,4-dihydroquinoline-3-carboxylic acid] showed an IC50 of less than 500 nM. `O=C(O)c1cn(-c2ccc(CN3CCCC3)nc2)c2c(Cl)c(N3CCN(c4ncccn4)CC3)c(F)cc2c1=O` [Example 33, 8-chloro-6-fluoro-4-oxo-7-(4-pyrimidin-2-ylpiperazin-1-yl)-1-[6-(pyrrolidin-1-ylmethyl)pyridin-3-yl]-1,4-dihydroquinoline-3-carboxylic acid] showed an IC50 of 2000 to 20000 nM. `O=C(O)c1cn(-c2ccc(CN3CCCC3)nc2)c2c(Cl)c(N3CCN(c4ccccn4)CC3)c(F)cc2c1=O` [Example 34, 8-chloro-6-fluoro-4-oxo-7-(4-pyridin-2-yl-piperazin-1-yl)-1-[6-(pyrrolidin-1-ylmethyl)pyridin-3-yl]-1,4-dihydroquinoline-3-carboxylic acid] showed an IC50 of 500 to 2000 nM. `N#Cc1cccnc1N1CCN(c2c(F)cc3c(=O)c(C(=O)O)cn(-c4ccc(CN5CCCC5)nc4)c3c2Cl)CC1` [Example 35, 8-chloro-7-[4-(3-cyanopyridin-2-yl)piperazin-1-yl]-6-fluoro-4-oxo-1-[6-(pyrrolidin-1-ylmethyl)pyridin-3-yl]-1,4-dihydroquinoline-3-carboxylic acid] gave an IC50 of less than 500 nM. Work on `N#Cc1ccccc1N1CCN(c2c(F)cc3c(=O)c(C(=O)O)cn(-c4ccc(CN5CCCC5)nc4)c3c2Cl)CC1` [Example 36, 8-chloro-7-[4-(2-cyanophenyl)piperazin-1-yl]-6-fluoro-4-oxo-1-[6-(pyrrolidin-1-ylmethyl)pyridin-3-yl]-1,4-dihydroquinoline-3-carboxylic acid] yielded an IC50 of 500 to 2000 nM. Compound `O=C(O)c1cn(-c2ccc(CN3CCCC3)nc2)c2c(Cl)c(N3CCN(c4ccc(F)cc4)CC3)c(F)cc2c1=O` [Example 37, 8-chloro-6-fluoro-7-[4-(4-fluorophenyl)-piperazin-1-yl]-4-oxo-1-[6-(pyrrolidin-1-ylmethyl)pyridin-3-yl]-1,4-dihydroquinoline-3-carboxylic acid] has an IC50 of less than 500 nM. With `O=C(O)c1cn(-c2ccc(CN3CCCC3)nc2)c2c(Cl)c(N3CCN(c4ccc(Cl)cc4)CC3)c(F)cc2c1=O` [Example 38, 8-chloro-7-[4-(4-chlorophenyl)piperazin-1-yl]-6-fluoro-4-oxo-1-[6-(pyrrolidin-1-ylmethyl)pyridin-3-yl]-1,4-dihydroquinoline-3-carboxylic acid] the IC50 was less than 500 nM.
